Data taken from ChEMBL document CHEMBL1201862, “PubChem BioAssay data set” (2004).
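Assay format: 96-well plates, 48-hour exposure. GI50 = concentration required for 50% inhibition of growth.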 Calls of active or inactive are those of the source. No stated cut-off is given here; in the data, active = GI50 up to about 1.1 µM and inactive = higher.

How the values were obtained:
Experiment in all cases: NCI anticancer screen, dose series, 48 h
SK-MEL-28 = test system: SK-MEL-28
HT-29 = test system: HT-29
NCI-H522 = test system: NCI-H522
DLD-1 = test system: DLD-1
SW-620 = test system: SW-620
UO-31 = test system: UO-31
A549 = test system: A549
HOP-18 = test system: HOP-18
SNB-75 = test system: SNB-75
HOP-62 = test system: HOP-62
SNB-78 = test system: SNB-78
M19-MEL = test system: M19-MEL
LOX IMVI = test system: LOX IMVI
M14 = test system: M14
ACHN = test system: ACHN
IGROV-1 = test system: IGROV-1
TK-10 = test system: TK-10
Malme-3M = test system: Malme-3M
OVCAR-8 = test system: OVCAR-8
OVCAR-4 = test system: OVCAR-4
SR = test system: SR
HCT-116 = test system: HCT-116
K562 = test system: K562
KM12 = test system: KM12
HL-60 = test system: HL-60
RPMI-8226 = test system: RPMI-8226
UACC-62 = test system: UACC-62
HOP-92 = test system: HOP-92
SN12C = test system: SN12C
CAKI-1 = test system: CAKI-1
DMS-273 = test system: DMS-273
KM-20L2 = test system: KM-20L2
OVCAR-3 = test system: OVCAR-3
OVCAR-5 = test system: OVCAR-5
U-251 = test system: U-251
SK-MEL-2 = test system: SK-MEL-2
NCI-H226 = test system: NCI-H226
SK-OV-3 = test system: SK-OV-3
CCRF-CEM = test system: CCRF-CEM
COLO 205 = test system: COLO 205
UACC-257 = test system: UACC-257
HCT-15 = test system: HCT-15
SF-268 = test system: SF-268
NCI-H23 = test system: NCI-H23
NCI-H460 = test system: NCI-H460
SF-539 = test system: SF-539
RXF 393 = test system: RXF 393
SF-295 = test system: SF-295
DMS-114 = test system: DMS-114
786-0 = test system: 786-0
SK-MEL-5 = test system: SK-MEL-5
MOLT-4 = test system: MOLT-4
SNB-19 = test system: SNB-19
LXFL 529 = test system: LXFL 529
HCC 2998 = test system: HCC 2998
A498 = test system: A498
EKVX = test system: EKVX
XF498 = test system: XF498

Cc1cc(O)nc(NNC(C#N)c2ccc(N(C)C)cc2)n1 (stereo not given)
GI50 (SK-MEL-28): > 100 µM (inactive)
GI50 (HT-29): > 100 µM (inactive)
GI50 (NCI-H522): > 100 µM (inactive)
GI50 (DLD-1): > 100 µM (inactive)
GI50 (SW-620): > 100 µM (inactive)
GI50 (UO-31): > 100 µM (inactive)
GI50 (A549): > 100 µM (inactive)
GI50 (HOP-18): > 100 µM (inactive)
GI50 (SNB-75): > 100 µM (inactive)
GI50 (HOP-62): > 100 µM (inactive)
GI50 (SNB-78): > 100 µM (inactive)
GI50 (M19-MEL): > 100 µM (inactive)
GI50 (LOX IMVI): > 100 µM (inactive)
GI50 (M14): > 100 µM (inactive)
GI50 (ACHN): > 100 µM (inactive)
GI50 (IGROV-1): > 100 µM (inactive)
GI50 (TK-10): > 100 µM (inactive)
GI50 (Malme-3M): > 100 µM (inactive)
GI50 (OVCAR-8): > 100 µM (inactive)
GI50 (OVCAR-4): > 100 µM (inactive)
GI50 (SR): 92.9 µM (inactive)
GI50 (HCT-116): > 100 µM (inactive)
GI50 (K562): > 100 µM (inactive)
GI50 (KM12): > 100 µM (inactive)
GI50 (HL-60): > 100 µM (inactive)
GI50 (RPMI-8226): > 100 µM (inactive)
GI50 (UACC-62): > 100 µM (inactive)
GI50 (HOP-92): > 100 µM (inactive)
GI50 (SN12C): > 100 µM (inactive)
GI50 (CAKI-1): > 100 µM (inactive)
GI50 (DMS-273): > 100 µM (inactive)
GI50 (KM-20L2): > 100 µM (inactive)
GI50 (OVCAR-3): > 100 µM (inactive)
GI50 (OVCAR-5): > 100 µM (inactive)
GI50 (U-251): > 100 µM (inactive)
GI50 (SK-MEL-2): > 100 µM (inactive)
GI50 (NCI-H226): > 100 µM (inactive)
GI50 (SK-OV-3): > 100 µM (inactive)
GI50 (CCRF-CEM): > 100 µM (inactive)
GI50 (COLO 205): > 100 µM (inactive)
GI50 (UACC-257): > 100 µM (inactive)
GI50 (HCT-15): > 100 µM
GI50 (SF-268): > 100 µM (inactive)
GI50 (NCI-H23): > 100 µM (inactive)
GI50 (NCI-H460): > 100 µM (inactive)
GI50 (SF-539): > 100 µM (inactive)
GI50 (RXF 393): > 100 µM (inactive)
GI50 (SF-295): > 100 µM (inactive)
GI50 (DMS-114): > 100 µM (inactive)
GI50 (786-0): > 100 µM (inactive)
GI50 (SK-MEL-5): > 100 µM (inactive)

O=C1c2cccc(O)c2C(=O)c2c(O)cccc21 [DANTHRON]
GI50 (SK-MEL-28): > 100 µM (inactive)
GI50 (HT-29): 35.8 µM (inactive)
GI50 (NCI-H522): 62.7 µM (inactive)
GI50 (DLD-1): 45 µM (inactive)
GI50 (SW-620): 64.1 µM (inactive)
GI50 (UO-31): > 100 µM (inactive)
GI50 (MOLT-4): 40.1 µM (inactive)
GI50 (A549): 56.1 µM (inactive)
GI50 (SNB-75): > 100 µM (inactive)
GI50 (HOP-62): > 100 µM (inactive)
GI50 (SNB-78): > 100 µM (inactive)
GI50 (M19-MEL): 3.66 µM (inactive)
GI50 (LOX IMVI): 55.8 µM (inactive)
GI50 (M14): 97.7 µM (inactive)
GI50 (ACHN): > 100 µM (inactive)
GI50 (IGROV-1): > 100 µM (inactive)
GI50 (SNB-19): > 100 µM (inactive)
GI50 (TK-10): > 100 µM (inactive)
GI50 (OVCAR-8): > 100 µM (inactive)
GI50 (OVCAR-4): 26.3 µM (inactive)
GI50 (LXFL 529): > 100 µM (inactive)
GI50 (SR): 43.3 µM (inactive)
GI50 (HCC 2998): 88.7 µM (inactive)
GI50 (HCT-116): 49 µM (inactive)
GI50 (K562): 92.9 µM (inactive)
GI50 (KM12): > 100 µM (inactive)
GI50 (A498): 17.9 µM (inactive)
GI50 (RPMI-8226): 50.7 µM (inactive)
GI50 (UACC-62): 16 µM (inactive)
GI50 (HOP-92): > 100 µM (inactive)
GI50 (SN12C): > 100 µM (inactive)
GI50 (CAKI-1): 33.7 µM (inactive)
GI50 (DMS-273): 31.6 µM (inactive)
GI50 (KM-20L2): 99.1 µM (inactive)
GI50 (OVCAR-3): 28.3 µM (inactive)
GI50 (OVCAR-5): > 100 µM (inactive)
GI50 (EKVX): 98.9 µM (inactive)
GI50 (U-251): 69.3 µM (inactive)
GI50 (SK-MEL-2): > 100 µM (inactive)
GI50 (NCI-H226): > 100 µM (inactive)
GI50 (SK-OV-3): > 100 µM (inactive)
GI50 (CCRF-CEM): > 100 µM (inactive)
GI50 (COLO 205): 22 µM (inactive)
GI50 (UACC-257): 85.1 µM (inactive)
GI50 (XF498): > 100 µM (inactive)
GI50 (HCT-15): 74.8 µM
GI50 (SF-268): > 100 µM (inactive)
GI50 (NCI-H23): > 100 µM (inactive)
GI50 (NCI-H460): 30.3 µM (inactive)
GI50 (SF-539): 53.6 µM (inactive)
GI50 (RXF 393): 92.5 µM (inactive)
GI50 (SF-295): 55.6 µM (inactive)
GI50 (DMS-114): 38 µM (inactive)
GI50 (786-0): > 100 µM (inactive)
